Read-outs that look alike come from different tables or passages of the source.

The source of these data is US6548096B1, “Aspartyl dipeptide ester derivatives and sweeteners” (Ajinomoto Co., Inc., priority 1998, dated 2003).

The conditions of assay [1]: as reported in WO 94/11391 (U.S. Pat. No. 5,480,668); cited from earlier work.
Assay [2] in a line: Sensory evaluation of sweetening potency relative to sugar. Format: in vivo. As to conditions: for Sweetening potency (relative to sugar): times that of sugar, sensory evaluation; for sweetening potency: Relative to sweetening potency of a 4% sucrose aqueous solution. From the text:
For example, the sweetening potency of N-[N-[3(3-methyl-4-hydroxyphenyl)propyl]-L-α-aspartyl]-L-phenylalanine 1-methyl ester was approximately 35,000 times that of sugar; that of N-[N-[3-(2-hydroxy-4-methylphenyl)propyl]-L-α-aspartyl]-L-α-phenylalanine 1-methyl ester was approximately 30,000 times that of sugar; that of N-[N-[3-(3-hydroxy-4-methoxyphenyl)propyl]-L-α-aspartyl]-L-phenylalanine 1-methyl ester was approximately 20,000 times that of sugar; that of N-[N-[3-(2-hydroxy-4-methoxyphenyl)propyl]-L-α-aspartyl]-L-phenylalanine 1-methyl ester was approximately 20,000 times that of sugar; that of N-[N-[3-(3-hydroxy-4-methylphenyl)propyl]-L-α-aspartyl]-L-phenylalanine 1-methyl ester was approximately 15,000 times that of sugar; that of N-(N-(3-(3-hydroxyphenyl)propyl]-L-α-aspartyl]-L-phenylalanine 1-methyl ester was approximately 8,000 times that of sugar; that of N-[N-(3-(4-methoxyphenyl)propyl]-L-α-aspartyl]-L-phenylalanine 1-methyl ester was approximately 6,500 times that of sugar; and that of N-(N-[3-(3-hydroxy-4-methoxyphenyl)propyl]-L-α-aspartyl]-L-tyrosine 1-methyl ester was approximately 16,000 times that of sugar.
The structures and the results of the sensory evaluation of aspartyl dipeptide derivatives represented by formula (2) are shown in Table 1. [drawing 3]

`COC(=O)[C@H](Cc1ccccc1)NC(=O)[C@H](CC(=O)O)NCCC(C)(C)C` [N-[N-(3,3-dimethylbutyl)-L-α-aspartyl]-L-phenylalanine 1-methyl ester]: in assay [1], the sweetening potency is listed as 10,000 times that of sugar.
For `COC(=O)[C@H](Cc1ccccc1)NC(=O)[C@H](CC(=O)O)NCCCc1ccccc1` [N-[N-(3-phenylpropyl)-L-α-aspartyl]-L-phenylalanine-1-methyl ester], in assay [1], the sweetening potency is 1,500 times that of sugar.
For the compound `COC(=O)[C@H](Cc1ccccc1)NC(=O)[C@H](CC(=O)O)NCCCc1ccc(O)c(OC)c1` [N-[N-[3-(3-methoxy-4-hydroxyphenyl)propyl]-L-α-aspartyl]-L-phenylalanine 1-methyl ester], in assay [1], the sweetening potency is recorded as 2,500 times that of sugar.
On to `COC(=O)[C@H](Cc1ccccc1)NC(=O)[C@H](CC(=O)O)NCCCc1ccc(OC)c(O)c1`, for which the “Sweetening potency (relative to sugar)” value in assay [2] was “approximately 20,000 times”.
`COC(=O)[C@H](Cc1ccccc1)NC(=O)[C@H](CC(=O)O)NCCCc1cccc(OC)c1` [Compound 8, N-[N-[3-(3-Methoxyphenyl)propyl]-L-α-aspartyl]-L-phenylalanine 1-Methyl Ester]: in assay [2], the sweetening potency was determined as 3500 and the “Sweetening potency (relative to sugar)” value is 3,500 times.
For `COC(=O)[C@H](Cc1ccccc1)NC(=O)[C@H](CC(=O)O)NCCCc1ccc(OC)c(O)c1` [Compound 1, N-[N-[3-(3-hydroxy-4-methoxyphenyl)propyl]-L-α-aspartyl]-L-phenylalanine 1-methyl ester], the sweetening potency in assay [2] amounted to 20000. For the same compound, the “Sweetening potency (relative to sugar)” value in assay [2] (listed as Example 1) is recorded as 20,000 times.
